Data reported in publication PMC11432624.
Converted amounts (≈) assume the structure as drawn. “And” between values parts separate entries of the source, which are not always exact repeats. Equal values may be shown once. Read-outs that look alike come from different tables or passages of the source. Starred links: 1 amine or outer side, 2 acyl side, 3 side chain; linkers in the order of their positions; H or OH if unused. Positions of bridges follow the written chain, without caps; N, C: chain ends. Non-standard residues stand in square brackets, D forms with d. Residues, ends and D or L forms follow the SMILES beside them. No end group written: not given here. *: point of attachment. hTyr(3S-OH,4S-OH,3'-OSO3H) = N[C@H](C(=O)O)[C@H](O)[C@@H](O)c1ccc(O)c(OS(=O)(=O)O)c1; pTerphenylCO(4''-OnC5H11) = CCCCCOc1ccc(-c2ccc(-c3ccc(C(=O)*)cc3)cc2)cc1; Orn(4R-OH,5R-OH) = O=C([C@H](C[C@@H](O)[C@@H](O)N[*:3])N[*:1])[*:2]; hTyr(3S-OH,4S-OH) = N[C@H](C(=O)O)[C@H](O)[C@@H](O)c1ccc(O)cc1; Pro(3S-OH,4S-Me) = C[C@H]1CN[C@H](C(=O)O)[C@H]1O; X1 = CCCCCOc1ccc(-c2cc(-c3ccc(C(=O)*)cc3)no2)cc1; Gln(3R-OH) = NC(=O)C[C@@H](O)[C@H](N)C(=O)O; Hyp = O=C(O)[C@@H]1C[C@@H](O)CN1

Assays:
C. albicans ATCC 18804 = assay: microbe, parasite or virus in culture; format: cell-based
From the text: (§1) Antifungal activity of the recombinant peptides was studied against collection strains of Candida albicans ATCC 18804 and ATCC 10231, clinical isolates of C. albicans v47a3 and 9.1, clinical isolates of C. krusei 225/2, C. glabrata 252/2 and C. tropicalis v13a4/2 isolated from the patients with human immunodeficiency virus (HIV) infection and provided by the G.N. Gabrichevsky Research Institute for Epidemiology and Microbiology (Moscow, Russia). C. albicans ATCC 18804 and v47a3, C. krusei 225/2, C. glabrata 252/2 and C. tropicalis v13a4/2 were characterized as sensitive to antimycotics yeast strains, while C. albicans ATCC 10231 and 9.1 were resistant to azoles. C. albicans ATCC 10231 was also resistant to anidulafungin (Supplementary Materials, Tables S4 and S6).
(§2) The study was carried out in Sabouraud broth using 96-well microplates. Yeast cells at a concentration of 4 × 10^4 cells/mL were mixed with equal volumes of two-fold dilutions of peptides in water, starting with a maximum concentration of 32 μM. Control wells without peptides were also used. Microplates were incubated at 30 °C for 24 h after that yeast growth was estimated using an inverted microscope and by measuring the optical density at 630 nm. MIC was defined as minimal peptide concentration, inhibiting fungal growth by 100%. To determine whether the peptides act fungicidal or fungistatic, the contents of the wells of the plate with peptide concentrations equal to MIC and higher were sown on Sabouraud agar and incubated at 37 °C for 24 h. MFC was defined as minimal peptide concentration, ensuring the death of all fungal cells. FI was defined as the fungicide index, equal to the MFC/MIC ratio and indicating the severity of the fungicidal action of the peptide. […] Either 150 mM NaCl, 1.25 mM MgCl2, 1.25 mM CaCl2 or 10% fetal bovine serum (FBS) was added to Sabouraud broth to estimate the influence of various salts and serum on the antifungal activity of peptides tested.

Candida albicans v47a3 = assay: Sensitivity of clinical isolates to conventional antimycotics (broth dilution MIC); settings: V47A3, read-out: MICs
Candida albicans 9.1 = assay: as above; settings: Candida albicans, 9.1, read-out: MICs
[1] = not given; remark: listed apart in the source
C. albicans 9.1 = format: cell-based; settings: 9.1, 24 h
From the text: as §1, §2

C. albicans ATCC 10231 = format: cell-based; settings: ATCC 10231, 24 h
From the text: as §1, §2

C. albicans v47a = format: cell-based; settings: 24 h
From the text: as §1, §2

C. glabrata 252/2 = format: cell-based; settings: 252/2, 24 h
From the text: as §1, §2

C. krusei 225/2 = format: cell-based; settings: 225/2, 24 h
From the text: as §1, §2

C. tropicalis v13a4/2 = format: cell-based; settings: v13a4/2, 24 h
From the text: as §1, §2

pepsin = pepsin (Sus scrofa, UniProt P00791); settings: 50 ng pepsin per 1 μg peptide, 0.05 M HCl pH~1.3, peptide 0.5 mg/mL, 37 °C, after 2 h, SDS-PAGE densitometry
Sequence of pepsin (P00791 60-385): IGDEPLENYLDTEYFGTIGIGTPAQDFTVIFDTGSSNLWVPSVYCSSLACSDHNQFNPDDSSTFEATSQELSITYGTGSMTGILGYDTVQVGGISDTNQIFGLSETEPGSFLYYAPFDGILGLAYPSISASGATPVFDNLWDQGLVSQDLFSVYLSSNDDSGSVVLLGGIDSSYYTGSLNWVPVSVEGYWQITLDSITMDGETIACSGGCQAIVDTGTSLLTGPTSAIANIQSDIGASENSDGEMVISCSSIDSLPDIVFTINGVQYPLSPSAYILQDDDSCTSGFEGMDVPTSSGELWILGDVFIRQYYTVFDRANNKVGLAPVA
Method: Gastric digestion was performed using 50 ng of pepsin per 1 μg of acidocin A in 0.05 M HCl (pH~1.3). […] The concentration of the peptide was 0.5 mg/mL in both cases. The reaction mixtures were incubated at 37 °C for 2 h and the aliquots were taken at 5 min, 30 min and 2 h after the start of incubation, immediately mixed with the sample buffer containing 4% SDS, and heated for 5 min at 80 °C to ensure protease inactivation. The degree of proteolysis was monitored by Laemmli SDS-PAGE in 18%T 3%C polyacrylamide gels by applying a volume of the mixture containing 1.5 μg of the peptide per lane.

human red blood cells = tested on: human red blood cells; parameters: method as in PMID 36557160; settings: cited from earlier work

With C[C@@H]1[C@H](O)[C@@H](C)/C=C/C=C/C=C/C=C/C=C/C=C/C=C/[C@H](O[C@@H]2O[C@H](C)[C@@H](O)[C@H](N)[C@@H]2O)C[C@@H]2O[C@](O)(C[C@@H](O)C[C@@H](O)[C@H](O)CC[C@@H](O)C[C@@H](O)CC(=O)O[C@H]1C)C[C@H](O)[C@H]2C(=O)O [Amphotericin B, reference compound] the “concentration with fungicidal effect (2 × MIC)” value (C. albicans ATCC 18804; C. albicans ATCC 18804, antifungal activity assay) was 1 µg/mL, the MIC (C. albicans ATCC 18804; Candida albicans, ATCC18804, C. albicans ATCC 18804, wells previously blocked with 0.1% BSA, read-out: MIC) was 0.5 µg/mL and the MIC (Candida albicans v47a3) was 0.5 µg/mL (≈ 0.541 µM). The MIC (Candida albicans 9.1) was 1 µg/mL (≈ 1.08 µM).

CCCCCOc1ccc(-c2ccc(-c3ccc(C(=O)N[C@H]4C[C@@H](O)[C@@H](O)NC(=O)[C@@H]5[C@@H](O)[C@@H](C)CN5C(=O)[C@H]([C@@H](C)O)NC(=O)[C@H]([C@H](O)[C@@H](O)c5ccc(O)cc5)NC(=O)[C@@H]5C[C@@H](O)CN5C(=O)[C@H]([C@@H](C)O)NC4=O)cc3)cc2)cc1 [Anidulafungin] ({pTerphenylCO(4''-OnC5H11)}-[Orn(4R-OH,5R-OH)]T[Hyp][hTyr(3S-OH,4S-OH)]T[Pro(3S-OH,4S-Me)]; lactam 1-C) gave an MIC (Candida albicans v47a3) of 0.03 µg/mL (≈ 0.0263 µM) and an MIC (Candida albicans 9.1) of 0.06 µg/mL (≈ 0.0526 µM).

In the case of CC[C@H](C)C[C@H](C)CCCCCCCCC(=O)N[C@H]1C[C@@H](O)[C@@H](NCCN)NC(=O)[C@@H]2[C@@H](O)CCN2C(=O)[C@H]([C@H](O)CCN)NC(=O)[C@H]([C@H](O)[C@@H](O)c2ccc(O)cc2)NC(=O)[C@@H]2C[C@@H](O)CN2C(=O)[C@H]([C@@H](C)O)NC1=O [Caspofungin], the MIC (Candida albicans v47a3) is reported as 0.06 µg/mL (≈ 0.0549 µM) and the MIC (Candida albicans 9.1) is reported as 0.12 µg/mL (≈ 0.11 µM).

In the case of OC(Cn1cncn1)(Cn1cncn1)c1ccc(F)cc1F [Fluconazole], the MIC (Candida albicans v47a3) is reported as 8 µg/mL (≈ 26.1 µM) and the MIC (Candida albicans 9.1) is reported as 256 µg/mL (≈ 836 µM).

Nc1[nH]c(=O)ncc1F [Flucytosine] gave an MIC (Candida albicans v47a3) of 0.06 µg/mL (≈ 0.465 µM) and an MIC (Candida albicans 9.1) of 0.06 µg/mL (≈ 0.465 µM).

CCC(C)n1ncn(-c2ccc(N3CCN(c4ccc(OCC5COC(Cn6cncn6)(c6ccc(Cl)cc6Cl)O5)cc4)CC3)cc2)c1=O (stereo not drawn) [Itraconazole] gave an MIC (Candida albicans v47a3) of 0.12 µg/mL (≈ 0.17 µM) and an MIC (Candida albicans 9.1) of 16 µg/mL (≈ 22.7 µM).

Work on CCCCCOc1ccc(-c2cc(-c3ccc(C(=O)N[C@H]4C[C@@H](O)[C@@H](O)NC(=O)[C@@H]5[C@@H](O)[C@@H](C)CN5C(=O)[C@H]([C@H](O)CC(N)=O)NC(=O)[C@H]([C@H](O)[C@@H](O)c5ccc(O)c(OS(=O)(=O)O)c5)NC(=O)[C@@H]5C[C@@H](O)CN5C(=O)[C@H]([C@@H](C)O)NC4=O)cc3)no2)cc1 [Micafungin] (X1-[Orn(4R-OH,5R-OH)]T[Hyp][hTyr(3S-OH,4S-OH,3'-OSO3H)][Gln(3R-OH)][Pro(3S-OH,4S-Me)]; lactam 1-C) yielded an MIC (Candida albicans v47a3) of 0.008 µg/mL (≈ 0.0063 µM) and an MIC (Candida albicans 9.1) of 0.015 µg/mL (≈ 0.0118 µM).

CC[C@@H]([C@H](C)O)n1ncn(-c2ccc(N3CCN(c4ccc(OC[C@@H]5CO[C@@](Cn6cncn6)(c6ccc(F)cc6F)C5)cc4)CC3)cc2)c1=O [Posaconazole] showed an MIC (Candida albicans v47a3) of 0.12 µg/mL (≈ 0.171 µM) and an MIC (Candida albicans 9.1) of 8 µg/mL (≈ 11.4 µM).

Compound C[C@@H](c1ncncc1F)[C@](O)(Cn1cncn1)c1ccc(F)cc1F [Voriconazole] has an MIC (Candida albicans v47a3) of 0.5 µg/mL (≈ 1.43 µM) and an MIC (Candida albicans 9.1) of 8 µg/mL (≈ 22.9 µM).

In the case of “KTHYPTNAWKSLWKGFWESLRYTDGF [Acidocin 8912]”, the Random is reported as 28.9% and 31.2% and 20.3%, the β-Turn [1] is reported as 23.9% and 17% and 22.4% and the MFC (C. albicans ATCC 18804; ATCC 18804, 24 h) is reported as over 32 µM. For the same compound, the MIC (C. albicans ATCC 18804; ATCC 18804, 24 h) was 32 µM, the MFC (C. albicans 9.1) was 32 µM and the MIC (C. albicans 9.1) was 16 µM. The MFC (C. albicans ATCC 10231) was 32 µM, the MIC (C. albicans ATCC 10231) was 16 µM and the MFC (C. albicans v47a) was over 32 µM. The MIC (C. albicans v47a) was 16 µM, the MFC (C. glabrata 252/2) was 16 µM and the MIC (C. glabrata 252/2) was 16 µM. The MFC (C. krusei 225/2) was 32 µM, the MIC (C. krusei 225/2) was 32 µM and the MFC (C. tropicalis v13a4/2) was 16 µM. It also gave an MIC (C. tropicalis v13a4/2) of 16 µM.

In the case of “KTYYGTNGVHCTKKSLWGKVRLKNVIPGTLCRKQSLPIKQDLKILLGWATGAFGKTFH (disulfide 11-31) [Acidocin A]”, the Random (cited from earlier work) is listed as 28.6% and 37.9% and 28.8%, the β-Turn ([1]; cited from earlier work) is listed as 20.3% and 19.2% and 22.6% and the MFC (C. albicans ATCC 18804; ATCC 18804, 24 h) is listed as 8 µM. It also gave an MIC (C. albicans ATCC 18804; ATCC 18804, 24 h) of 4 µM, an MFC (C. albicans 9.1) of 16 µM and an MIC (C. albicans 9.1) of 4 µM. The MFC (C. albicans ATCC 10231) was 16 µM, the MIC (C. albicans ATCC 10231) was 8 µM and the MFC (C. albicans v47a) was 4 µM. For the same compound, the MIC (C. albicans v47a) was 4 µM, the MFC (C. glabrata 252/2) was 4 µM and the MIC (C. glabrata 252/2) was 4 µM. The MFC (C. krusei 225/2) was 8 µM, the MIC (C. krusei 225/2) was 8 µM and the MFC (C. tropicalis v13a4/2) was 4 µM. The MIC (C. tropicalis v13a4/2) was 4 µM, the “resistance to pepsin (amount remaining)” value (pepsin) was “more than half of the initial amount was retained” and the HC10 (human red blood cells) was over 128 µM.
